Assay results reported in patent publication US6455284B1, “Metabolically engineered E. coli for enhanced production of oxaloacetate-derived biochemicals” (The University of Georgia Research Foundation, Inc., priority 1998, dated 2002).
One block for each molecule: values may come before it.

Assays:
[1] = target: R. etli pyruvate carboxylase (Rhizobium etli, UniProt Q2K340); assay: Pyruvate carboxylase (PC) coupled enzyme assay (Payne and Morris) with E. coli cell extracts; assay type: biochemical; conditions: for effect of nicotinamide nucleotides on pyruvate carboxylase activity: cell-free crude extract from MG1655 pTrc99A-pyc, FIG. 9
Protocol: Pyruvate carboxylase (PC) enzyme assay. For pyruvate carboxylase activity measurements, 100 mL of mid-log phase culture was harvested by centrifugation at 7,000×g for 15 minutes at 4° C. and washed with 10 mL of 100 mM Tris-Cl (pH 8.0). The cells were then resuspended in 4 mL of 100 mM Tris-Cl (pH 8.0) and subsequently subjected to cell disruption by sonication. The cell debris was removed by centrifugation at 20,000×g for 15 minutes at 4° C. The pyruvate carboxylase activity was measured by the method of Payne and Morris (J. Gen. Microbiol., 59, 97-101 (1969)). In this assay the oxaloacetate produced by pyruvate carboxylase is converted to citrate by the addition of citrate synthase in the presence of acetyl CoA and 5,5-dithio-bis(2-nitro-benzoate) (DTNB) (Aldrich Chemical Co.); the homotetramer pyruvate carboxylase enzyme from R. etli requires acetyl coenzyme A for activation. The rate of increase in absorbence at 412 nm due to the presence of CoA-dependent formation of the 5-thio-2-nitrobenzoate was monitored, first after the addition of pyruvate and then after the addition of ATP. The difference between these two rates was taken as the ATP-dependent pyruvate carboxylase activity. The concentration of reaction components per milliliter of mixture was as follows: 100 mM Tris-Cl (pH 8.0), 5 mM MgCl2.H2O, 50 mM Na HCO3, 0.1 mM acetyl CoA, 0.25 mM DTNB, and 5 units (U) of citrate synthase. Pyruvate, ATP, ADP, or aspartate, were added as specified in the Results section, below. The reaction was started by adding 50 μl of cell extract. One unit of pyruvate carboxylase activity corresponds to the formation of 1 μmol of 5-thio-2-nitrobenzoate per mg of protein per minute. All enzyme assays were performed in triplicate and a standard error of less then 10% was observed. The total protein in the cell extracts was determined by the Lowry method (O. Lowry et al., J. Biol. Chem., 193, 265-275 (1951)).
R. etli pyruvate carboxylase can convert pyruvate to oxaloacetate in E. coli. To confirm that the expressed pyruvate carboxylase protein was enzymatically active in E. coli, the coupled enzyme assay developed by Payne and Morris was employed to assess pyruvate carboxylase activity (J. Payne et al., J. Gen. Microbiol., 59, 97-101 (1969)). Cell extracts containing the induced pUC18-pyc construct (MG1655 pUC18-pyc) were tested for pyruvate carboxylase activity using varying amounts of pyruvate, and compared to controls containing the pUC18 construct (MG1655 pUC18). ATP was added at a final concentration of 5 mM to the reaction mixture and pyruvate carboxylase activity was determined in the presence of increasing amounts of pyruvate. […] This value is in excellent agreement with other pyruvate carboxylase enzymes that have been studied (H. Feir et al., Can. J. Biochem., 47, 698-710 (1969); H. Modak et al., Microbiol., 141, 2619-2628 (1995); M. Scrutton et al., Arch. Biochem. Biophys., 164, 641-654 (1974)).
It is well documented that the α4 pyruvate carboxylase enzymes can be inhibited by either aspartate or adenosine diphosphate (ADP). Aspartate is the first amino acid that is synthesized from oxaloacetate and ADP is liberated when pyruvate carboxylase converts pyruvate to oxaloacetate. Pyruvate carboxylase activity in the presence of each of these inhibitors was evaluated using extracts of MG1655 cells that contained the pUC18-pyc construct. The effect of aspartate was analyzed by adding ATP and pyruvate to the reaction mixture to final concentrations of 5 mM and 6 mM, respectively, then determining pyruvate carboxylase activity in the presence of increasing amounts of aspartate. […] As expected, the pyruvate carboxylase activity was inhibited by aspartate and the specific activity decreased to approximately 43% in the presence of 8 mM aspartate. The effect of ADP was analyzed by adding pyruvate to the reaction mixture to a final concentration of 5 mM, then determining pyruvate carboxylase activity in the presence of increasing amounts of […]. […]

[2] = tested on: biotinylated R. etli pyruvate carboxylase expressed in E. coli; assay: Western blot of in vivo biotinylated pyruvate carboxylase in MG1655 pUC18-pyc cells grown with varying biotin; assay type: cell-based; conditions: M9 media, 37° C., mid-log
Protocol: Protein gels and Western blotting. Heat-denatured cell extracts were separated on 10% SDS-PAGE gels as per Altman et. al. (J. Bact., 155, 1130-1137 (1983)) and Western blots were carried out as per Carroll and Gherardini (Infect. Immun., 64, 392-398 (1996)). ALS225 E. coli cells containing either pUC18 or pUC18-pyc were grown to mid-log in rich media at 37° C. both in the presence and absence of IPTG. Because ALS225 contains lacIq1 on the F′, significant induction of the pUC18-pyc construct should not occur unless IPTG is added. Protein extracts were prepared, subjected to SDS PAGE, and Western blotted. Proteins which had been biotinylated in vivo were then detected using the Sigma-Blot protein detection kit (Sigma Chemical Corp., St. Louis, Mo.). The instructions of the manufacturer were followed except that during the development of the western blots the protein biotinylation step was omitted, thus allowing for the detection of only those proteins which had been biotinylated in vivo.
Effects of biotin and biotin holoenzyme synthase on the expression of biotinylated R. etli pyruvate carboxylase in E. coli. […] Proteins which had been biotinylated in vivo were then detected using the Sigma-Blot protein detection kit, as described above. […] The amount of biotinylated pyruvate carboxylase that was present in each sample was quantitated using a Stratagene Eagle Eye II Still Video. […]

[3] = substrate: CC(=O)C(=O)O; assay: Pyruvate carboxylase (PC) coupled enzyme assay (Payne and Morris) with E. coli cell extracts; assay type: biochemical, R. etli; conditions: other: MG1655 pUC18-pyc extract; ATP 5 mM; Lineweaver-Burke plot; pH 8.0
Protocol: Pyruvate carboxylase (PC) enzyme assay. For pyruvate carboxylase activity measurements, 100 mL of mid-log phase culture was harvested by centrifugation at 7,000×g for 15 minutes at 4° C. and washed with 10 mL of 100 mM Tris-Cl (pH 8.0). The cells were then resuspended in 4 mL of 100 mM Tris-Cl (pH 8.0) and subsequently subjected to cell disruption by sonication. The cell debris was removed by centrifugation at 20,000×g for 15 minutes at 4° C. The pyruvate carboxylase activity was measured by the method of Payne and Morris (J. Gen. Microbiol., 59, 97-101 (1969)). […] The rate of increase in absorbence at 412 nm due to the presence of CoA-dependent formation of the 5-thio-2-nitrobenzoate was monitored, first after the addition of pyruvate and then after the addition of ATP. […] The total protein in the cell extracts was determined by the Lowry method (O. Lowry et al., J. Biol. Chem., 193, 265-275 (1951)).
R. etli pyruvate carboxylase can convert pyruvate to oxaloacetate in E. coli. […] ATP was added at a final concentration of 5 mM to the reaction mixture and pyruvate carboxylase activity was determined in the presence of increasing amounts of pyruvate. […]

Molecule: Nc1ncnc2c1ncn2[C@@H]1O[C@H](COP(=O)(O)OP(=O)(O)O)[C@@H](O)[C@H]1O [ADP, adenosine diphosphate]
- Ki [1]: 142 µM
- mode of inhibition of pyruvate carboxylase ([1]; MG1655 pUC18-pyc extract, pyruvate 5 mM, increasing ATP): competitive inhibitor of ATP

Molecule: Nc1ncnc2c1ncn2[C@@H]1O[C@H](COP(=O)(O)OP(=O)(O)OP(=O)(O)O)[C@@H](O)[C@H]1O [ATP]
- Km ([1]; MG1655 pUC18-pyc extract, pyruvate 5 mM, Lineweaver-Burke plot, read-out: saturation constant (Km) for expressed pyruvate carboxylase with respect to ATP): 193 µM

- effect of nicotinamide nucleotides on pyruvate carboxylase activity [1]: did not
Molecule: NC(=O)c1ccc[n+]([C@@H]2O[C@H](COP(=O)([O-])OP(=O)(O)OC[C@H]3O[C@@H](n4cnc5c(N)ncnc54)[C@H](O)[C@@H]3O)[C@@H](O)[C@H]2O)c1 [NAD+]

Molecule: NC(=O)C1=CN([C@@H]2O[C@H](COP(=O)(O)OP(=O)(O)OC[C@H]3O[C@@H](n4cnc5c(N)ncnc54)[C@H](O)[C@@H]3O)[C@@H](O)[C@H]2O)C=CC1 [NADH, reduced nicotinamide adenine dinucleotide]
- effect of nicotinamide nucleotides on pyruvate carboxylase activity [1]: inhibited pyruvate carboxylase

- effect of nicotinamide nucleotides on pyruvate carboxylase activity [1]: did not
Molecule: NC(=O)c1ccc[n+]([C@@H]2O[C@H](COP(=O)([O-])OP(=O)(O)OC[C@H]3O[C@@H](n4cnc5c(N)ncnc54)[C@H](OP(=O)(O)O)[C@@H]3O)[C@@H](O)[C@H]2O)c1 [NADP+]

- effect of nicotinamide nucleotides on pyruvate carboxylase activity [1]: did not
Molecule: NC(=O)C1=CN([C@@H]2O[C@H](COP(=O)(O)OP(=O)(O)OC[C@H]3O[C@@H](n4cnc5c(N)ncnc54)[C@H](OP(=O)(O)O)[C@@H]3O)[C@@H](O)[C@H]2O)C=CC1 [NADPH]

Molecule: N[C@@H](CC(=O)O)C(=O)O [aspartate]
- remaining activity at 8000 µM ([1]; read-out: pyruvate carboxylase specific activity remaining): ~43%

Molecule: O=C(O)CCCC[C@@H]1SC[C@@H]2NC(=O)N[C@@H]21 [biotin]
- biotin concentration sufficient to biotinylate all of the expressed pyruvate carboxylase [2]: 50 ng/mL

B1: R. etli pyruvate carboxylase (Rhizobium etli CFN 42) (protein)
chain: MPISKILVANRSEIAIRVFRAANELGIKTVAIWAEEDKLALHRFKADESYQVGRGPHLARDLGPIESYLSIDEVIRVAKLSGADAIHPGYGLLSESPEFVDACNKAGIIFIGPKADTMRQLGNKVAARNLAISVGVPVVPATEPLPDDMAEVAKMAAAIGYPVMLKASWGGGGRGMRVIRSEADLAKEVTEAKREAMAAFGKDEVYLEKLVERARHVESQILGDTHGNVVHLFERDCSVQRRNQKVVERAPAPYLSEAQRQELAAYSLKIAGATNYIGAGTVEYLMDADTGKFYFIEVNPRIQVEHTVTEVVTGIDIVKAQIHILDGAAIGTPQSGVPNQEDIRLNGHALQCRVTTEDPEHNFIPDYGRITAYRSASGFGIRLDGGTSYSGAIITRYYDPLLVKVTAWAPNPLEAISRMDRALREFRIRGVATNLTFLEAIIGHPKFRDNSYTTRFIDTTPELFQQVKRQDRATKLLTYLADVTVNGHPEAKDRPKPLENAARPVVPYANGNGVKDGTKQLLDTLGPKKFGEWMRNEKRVLLTDTTMRDGHQSLLATRMRTYDIARIAGTYSHALPNLLSLECWGGATFDVSMRFLTEDPWERLALIREGAPNLLLQMLLRGANGVGYTNYPDNVVKYFVRQAAKGGIDLFRVFDCLNWVENMRVSMDAIAEENKLCEAAICYTGDILNSARPKYDLKYYTNLAVELEKAGAHIIAVKDMAGLLKPAAAKVLFKALREATGLPIHFHTHDTSGIAAATVLAAVEAGVDAVDAAMDALSGNTSQPCLGSIVEALSGSERDPGLDPAWIRRISFYWEAVRNQYAAFESDLKGPASEVYLHEMPGGQFTNLKEQARSLGLETRWHQVAQAYADANQMFGDIVKVTPSSKVVGDMALMMVSQDLTVADVVSPDREVSFPESVVSMLKGDLGQPPSGWPEALQKKALKGEKPYTVRPGSLLKEADLDAERKVIEKKLEREVSDFEFASYLMYPKVFTDFALASDTYGPVSVLPTPAYFYGLADGEELFADIEKGKTLVIVNQAVSATDSQGMVTVFFELNGQPRRIKVPDRAHGATGAAVRRKAEPGNAAHVGAPMPGVISRVFVSSGQAVNAGDVLVSIEAMKMETAIHAEKDGTIAEVLVKAGDQIDAKDLLAVYGG
- Km [3]: 249 µM
